“And” between values parts separate entries of the source, which are not always exact repeats. Equal values may be shown once. Toxic doses and inconclusive results are not listed.
System: P388 leukemia ip, CD2F1 mice, survival T/C
Experiment: NCI In Vivo Anticancer Drug Screen. Data for tumor model P388 Leukemia (intraperitoneal) in CD2F1 (CDF1) mice
Conditions: endpoint: median survival time, higher = longer survival
Outline: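 Mice carrying the transplanted tumor received test compound or vehicle. Survival was recorded in each group, and the value is the treated-group measurement divided by that of the vehicle-treated control group.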

[1] = dose: 12.5 mg/kg/injection, schedule: Q01DX005 (ip), vehicle: Klucel (hydroxypropylcellulose) (HPC)
[2] = dose: 25.0 mg/kg/injection, schedule: Q01DX005 (ip), vehicle: Klucel (hydroxypropylcellulose) (HPC)
[3] = dose: 50.0 mg/kg/injection, schedule: Q01DX009 (ip), vehicle: saline with Tween-80
[4] = dose: 200.0 mg/kg/injection, schedule: Q01DX009 (ip), vehicle: saline with Tween-80
[5] = dose: 50.0 mg/kg/injection, schedule: Q01DX005 (ip), vehicle: Klucel (hydroxypropylcellulose) (HPC)
[6] = dose: 100.0 mg/kg/injection, schedule: Q01DX009 (ip), vehicle: saline with Tween-80
[7] = dose: 50.0 mg/kg/injection, schedule: Q01DX009 (ip), vehicle: saline
[8] = dose: 100.0 mg/kg/injection, schedule: Q01DX009 (ip), vehicle: saline
[9] = dose: 200.0 mg/kg/injection, schedule: Q01DX009 (ip), vehicle: saline
[10] = dose: 60.0 mg/kg/injection, schedule: Q01DX005 (ip), vehicle: saline with Tween-80
[11] = dose: 120.0 mg/kg/injection, schedule: Q01DX005 (ip), vehicle: saline with Tween-80
[12] = dose: 50.0 mg/kg/injection, schedule: Q01DX009 (ip), vehicle: Klucel (hydroxypropylcellulose) (HPC)
[13] = dose: 100.0 mg/kg/injection, schedule: Q01DX009 (ip), vehicle: Klucel (hydroxypropylcellulose) (HPC)

Compound: Cc1cccc(-n2c(C)nc3c(c(C)c(C)n3-c3ccccc3)c2=N)c1
- T/C (dose: 6.25 mg/kg/injection, schedule: Q01DX005 (ip), vehicle: Klucel (hydroxypropylcellulose) (HPC)): 97 % of control
- T/C [1]: 100 % of control
- T/C [2]: 99 % of control

Compound: C[Si](C)(C)N=S1(=N[Si](C)(C)C)CCCC1
- T/C (dose: 50.0 mg/kg/injection, schedule: Q01DX005 (ip), vehicle: olive oil, sesame oil, peanut oil): 109 % of control
- T/C (dose: 100.0 mg/kg/injection, schedule: Q01DX005 (ip), vehicle: olive oil, sesame oil, peanut oil): 109 % of control
- T/C (dose: 200.0 mg/kg/injection, schedule: Q01DX005 (ip), vehicle: olive oil, sesame oil, peanut oil): 114 % of control

Compound: CN=S(=O)(OCCCCCOS(=O)(=NC)c1ccccc1)c1ccccc1 (configuration not stated)
- T/C [3]: 124 % of control
- T/C [4]: 158 % of control and 170 % of control

Compound: COc1ccc2c(c1OC(=O)NCCCl)-c1cccc3c1C(C2)N(CCOC(=O)NCCCl)CC3 (configuration not stated)
- T/C (dose: 6.25 mg/kg/injection, schedule: Q04DX003 (ip), vehicle: saline + alcohol): 109 % of control
- T/C (dose: 12.5 mg/kg/injection, schedule: Q04DX003 (ip), vehicle: saline + alcohol): 102 % of control
- T/C (dose: 25.0 mg/kg/injection, schedule: Q04DX003 (ip), vehicle: saline + alcohol): 96 % of control
- T/C (dose: 50.0 mg/kg/injection, schedule: Q04DX003 (ip), vehicle: saline + alcohol): 106 % of control
- T/C (dose: 100.0 mg/kg/injection, schedule: Q04DX003 (ip), vehicle: saline + alcohol): 98 % of control
- T/C (dose: 200.0 mg/kg/injection, schedule: Q04DX003 (ip), vehicle: saline + alcohol): 105 % of control

Compound: CSc1nc2[nH]cnc(=S)c2[nH]1
- T/C (dose: 6.25 mg/kg/injection, schedule: Q04DX003 (ip), vehicle: saline with Tween-80): 90 % of control
- T/C (dose: 12.5 mg/kg/injection, schedule: Q04DX003 (ip), vehicle: saline with Tween-80): 90 % of control
- T/C (dose: 25.0 mg/kg/injection, schedule: Q04DX003 (ip), vehicle: saline with Tween-80): 109 % of control

Compound: COc1cc2c(oc(=O)c3cc(C)cc(OC)c32)c2c(C3OC(C)C(O)C(C)(O)C3O)ccc(O)c12 (configuration not stated)
- T/C (dose: 1.56 mg/kg/injection, schedule: Q01DX005 (ip), vehicle: DMSO): 101 % of control
- T/C (dose: 3.12 mg/kg/injection, schedule: Q01DX005 (ip), vehicle: DMSO): 105 % of control and 109 % of control
- T/C (dose: 6.25 mg/kg/injection, schedule: Q01DX005 (ip), vehicle: DMSO): 114 % of control
- T/C (dose: 12.5 mg/kg/injection, schedule: Q01DX005 (ip), vehicle: DMSO): 123 % of control

Compound: CC[C@@]1(O)CC(OC2CC(N3CCOCC3)C(O)C(C)O2)c2c(O)c3c(c(O)c2[C@H]1O)C(=O)c1cccc(O)c1C3=O (some centres not stated)
- T/C (dose: 0.89 mg/kg/injection, schedule: Q04DX003 (iv), vehicle: saline): 163 % of control
- T/C (dose: 1.33 mg/kg/injection, schedule: Q04DX003 (iv), vehicle: saline): 186 % of control
- T/C (dose: 2.0 mg/kg/injection, schedule: Q04DX003 (iv), vehicle: saline): 209 % of control
- T/C (dose: 3.0 mg/kg/injection, schedule: Q04DX003 (iv), vehicle: saline): 242 % of control
- T/C (dose: 4.5 mg/kg/injection, schedule: Q04DX003 (iv), vehicle: saline): 113 % of control

Compound: CN1CCN(CCCN(c2cccc(C(F)(F)F)c2)c2cccc(C(F)(F)F)c2)CC1
- T/C (dose: 50.0 mg/kg/injection, schedule: Q01DX001 (ip), vehicle: Klucel (hydroxypropylcellulose) (HPC)): 100 % of control
- T/C (dose: 100.0 mg/kg/injection, schedule: Q01DX001 (ip), vehicle: Klucel (hydroxypropylcellulose) (HPC)): 98 % of control
- T/C (dose: 200.0 mg/kg/injection, schedule: Q01DX001 (ip), vehicle: Klucel (hydroxypropylcellulose) (HPC)): 92 % of control

Compound: O=C1CCN(C(=O)C2=CC(=O)OC2)C1
- T/C [1]: 100 % of control
- T/C [2]: 93 % of control
- T/C [5]: 100 % of control

Compound: CCCCCOC(=O)c1ccc(O)cc1
- T/C (dose: 12.5 mg/kg/injection, schedule: Q01DX009 (ip), vehicle: saline with Tween-80): 108 % of control
- T/C (dose: 25.0 mg/kg/injection, schedule: Q01DX009 (ip), vehicle: saline with Tween-80): 100 % of control
- T/C [3]: 99 % of control and 100 % of control
- T/C [6]: 94 % of control

Compound: CCNCC(=O)Nc1ccc(C2NC(=O)C(C)(C)c3ccccc32)cc1 (configuration not stated)
- T/C [7]: 99 % of control
- T/C [8]: 101 % of control
- T/C [9]: 97 % of control

Compound: Nc1[nH]c(=O)ncc1-c1ccccc1Cl
- T/C [10]: 98 % of control
- T/C [11]: 104 % of control
- T/C (dose: 240.0 mg/kg/injection, schedule: Q01DX005 (ip), vehicle: saline with Tween-80): 112 % of control

Compound: Cc1ccc(O)c(C2CC(=O)NC(NC#N)=N2)c1 (configuration not stated)
- T/C [7]: 103 % of control
- T/C [8]: 101 % of control
- T/C [9]: 101 % of control

Compound: N#CCCC12CCC(=O)N1Cc1ccccc1C2=O (configuration not stated)
- T/C (dose: 60.0 mg/kg/injection, schedule: Q01DX005 (ip), vehicle: saline): 105 % of control
- T/C (dose: 120.0 mg/kg/injection, schedule: Q01DX005 (ip), vehicle: saline): 123 % of control
- T/C (dose: 240.0 mg/kg/injection, schedule: Q01DX005 (ip), vehicle: saline): 123 % of control

Compound: CCOc1ccc(NC(=O)c2c(N)n(C)c(=O)n(C)c2=O)cc1
- T/C [12]: 88 % of control
- T/C [13]: 93 % of control

Compound: CCCCN1C(=O)/C(=C/c2ccco2)SC1=S
- T/C [3]: 101 % of control
- T/C [6]: 104 % of control
- T/C [4]: 102 % of control

Compound: O=NNc1nc(-c2ccccn2)nc2ccccc12
- T/C (dose: 3.12 mg/kg/injection, schedule: Q01DX009 (ip), vehicle: DMSO): 109 % of control
- T/C (dose: 6.25 mg/kg/injection, schedule: Q01DX009 (ip), vehicle: DMSO): 94 % of control
- T/C (dose: 12.5 mg/kg/injection, schedule: Q01DX009 (ip), vehicle: DMSO): 105 % of control
- T/C (dose: 25.0 mg/kg/injection, schedule: Q01DX009 (ip), vehicle: DMSO): 102 % of control

Compound: CC(=O)NCCN=Cc1ccccc1
- T/C (dose: 100.0 mg/kg/injection, schedule: Q04DX003 (ip), vehicle: saline with Tween-80): 100 % of control
- T/C (dose: 200.0 mg/kg/injection, schedule: Q04DX003 (ip), vehicle: saline with Tween-80): 100 % of control
- T/C (dose: 400.0 mg/kg/injection, schedule: Q04DX003 (ip), vehicle: saline with Tween-80): 100 % of control

Compound: CC(O[Si](C)(C)C(C)(C)C)C(=O)Sc1ccccn1 (configuration not stated)
- T/C [10]: 102 % of control
- T/C [11]: 103 % of control

Compound: CCCCC/C=C/CCCCCCC1C=CCC1 (configuration not stated)
- T/C (dose: 100.0 mg/kg/injection, schedule: Q01DX001 (ip), vehicle: saline): 101 % of control
- T/C (dose: 200.0 mg/kg/injection, schedule: Q01DX001 (ip), vehicle: saline): 100 % of control
- T/C (dose: 400.0 mg/kg/injection, schedule: Q01DX001 (ip), vehicle: saline): 100 % of control

Compound: Brc1nc(Br)c(Br)[nH]1
- T/C (dose: 50.0 mg/kg/injection, schedule: Q01DX009 (ip), vehicle: saline sonified): 91 % of control

Compound: Cc1nn(C(=S)S)c(C)c1N=Nc1ccccc1C(F)(F)F
- T/C (dose: 3.12 mg/kg/injection, schedule: Q04DX002 (ip), vehicle: saline with Tween-80): 99 % of control and 102 % of control
- T/C (dose: 6.25 mg/kg/injection, schedule: Q04DX002 (ip), vehicle: saline with Tween-80): 100 % of control
- T/C (dose: 12.5 mg/kg/injection, schedule: Q04DX002 (ip), vehicle: saline with Tween-80): 108 % of control and 94 % of control
- T/C (dose: 25.0 mg/kg/injection, schedule: Q04DX002 (ip), vehicle: saline with Tween-80): 103 % of control and 86 % of control and 89 % of control
- T/C (dose: 50.0 mg/kg/injection, schedule: Q04DX002 (ip), vehicle: saline with Tween-80): 96 % of control
- T/C (dose: 200.0 mg/kg/injection, schedule: Q04DX002 (ip), vehicle: saline with Tween-80): 89 % of control
- T/C (dose: 400.0 mg/kg/injection, schedule: Q04DX002 (ip), vehicle: saline with Tween-80): 105 % of control

Compound: CC[As](CC)SC(CC[C@@H](C)C1CC[C@@]2(C)C3=C(CC[C@]12C)[C@@]1(C)CC[C@H](O)C(C)(C)[C@@H]1CC3)C(C)C (some centres not stated)
- T/C [5]: 87 % of control
- T/C (dose: 100.0 mg/kg/injection, schedule: Q01DX005 (ip), vehicle: Klucel (hydroxypropylcellulose) (HPC)): 92 % of control
- T/C (dose: 200.0 mg/kg/injection, schedule: Q01DX005 (ip), vehicle: Klucel (hydroxypropylcellulose) (HPC)): 95 % of control

Compound: CN(C)CC1CC1N1c2ccccc2Sc2ccc(Cl)cc21 (configuration not stated)
- T/C (dose: 25.0 mg/kg/injection, schedule: Q01DX009 (ip), vehicle: Klucel (hydroxypropylcellulose) (HPC)): 99 % of control
- T/C [12]: 101 % of control and 112 % of control
- T/C [13]: 101 % of control and 112 % of control

Compound: O=[N+]([O-])CC(OCCCCO)C(Cl)(Cl)Cl (configuration not stated)
- T/C [3]: 101 % of control
- T/C [6]: 96 % of control
- T/C [4]: 87 % of control

— PubChem BioAssay AID330 (DTP/NCI, 2004)
